The results in this text go back to PubChem BioAssay AID328 (DTP/NCI, 2004).

Where “and” joins values, the source holds several entries; their conditions need not be identical. Identical values can stand only once. Inconclusive results and toxic doses are left out.

For the assay, the system named is BDF1 mice, P388 leukemia ip, median survival T/C. Nature of the assay: NCI In Vivo Anticancer Drug Screen. Data for tumor model P388 Leukemia (intraperitoneal) in B6D2F1 (BDF1) mice. As to conditions: endpoint: median survival time, higher = longer survival. The gist of the method: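 Steps: implant the tumour, treat one group with compound and another with vehicle, record survival, then divide treated by control.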

Where [1] appears, read: dose: 100.0 mg/kg/injection, schedule: Q01DX009 (ip), vehicle: saline.
Where [2] appears, read: dose: 200.0 mg/kg/injection, schedule: Q01DX009 (ip), vehicle: saline.
[3] abbreviates: dose: 400.0 mg/kg/injection, schedule: Q01DX009 (ip), vehicle: saline.
[4] abbreviates: dose: 100.0 mg/kg/injection, schedule: Q04DX002 (ip), vehicle: saline with Tween-80.
Where [5] appears, read: dose: 200.0 mg/kg/injection, schedule: Q04DX002 (ip), vehicle: saline with Tween-80.
[6] abbreviates: dose: 50.0 mg/kg/injection, schedule: Q01DX009 (ip), vehicle: saline with Tween-80.
Setting [7] is: dose: 100.0 mg/kg/injection, schedule: Q01DX009 (ip), vehicle: saline with Tween-80.
Setting [8] is: dose: 50.0 mg/kg/injection, schedule: Q01DX009 (ip), vehicle: saline.
The mark [9] stands for this setting: dose: 200.0 mg/kg/injection, schedule: Q01DX009 (ip), vehicle: saline with Tween-80.
Setting [10] is: dose: 100.0 mg/kg/injection, schedule: Q04DX003 (ip), vehicle: saline with Tween-80.
[11] abbreviates: dose: 200.0 mg/kg/injection, schedule: Q04DX003 (ip), vehicle: saline with Tween-80.
The mark [12] stands for this setting: dose: 400.0 mg/kg/injection, schedule: Q04DX003 (ip), vehicle: saline with Tween-80.
Where [13] appears, read: dose: 100.0 mg/kg/injection, schedule: Q04DX003 (ip), vehicle: Klucel (hydroxypropylcellulose) (HPC).
Setting [14] is: dose: 200.0 mg/kg/injection, schedule: Q04DX003 (ip), vehicle: Klucel (hydroxypropylcellulose) (HPC).
Setting [15] is: dose: 100.0 mg/kg/injection, schedule: Q04DX003 (ip), vehicle: saline sonified.
Setting [16] is: dose: 200.0 mg/kg/injection, schedule: Q04DX003 (ip), vehicle: saline sonified.

In the case of `O=C(O)/C=C\C(=O)Nc1ccccc1NC(=O)/C=C/C(=O)O`, the T/C by setting is: under setting [1], 104 % of control; under setting [2], 113 % of control; under setting [3], 109 % of control.

As to `CSc1nnc(/C=C/c2ccc3c(c2)OCO3)c(=O)n1N`, the T/C runs as follows: under setting [4], 106 % of control; under setting [5], 106 % of control.

As to `CC[C@@]1(O)C[C@H](OC2CC(N(C)C)C(O)C(C)O2)c2c(O)c3c(c(O)c2[C@H]1OC1CC(N(C)C)C(O)C(C)O1)C(=O)c1cccc(O)c1C3=O` (stereo not given in full), the T/C (dose: 0.25 mg/kg/injection, schedule: Q01DX010 (ip), vehicle: saline) is 100 % of control.

Consider `CCC(c1ccc(OC)cc1)C(NCC(=O)NNC(=O)CNC(c1ccc(OC)cc1)C(CC)c1ccc(OC)cc1)c1ccc(OC)cc1` (stereo not given), for which the T/C runs as follows: (dose: 12.5 mg/kg/injection, schedule: Q04DX002 (ip), vehicle: saline with Tween-80) 110 % of control; (dose: 25.0 mg/kg/injection, schedule: Q04DX002 (ip), vehicle: saline with Tween-80) 88 % of control; (dose: 50.0 mg/kg/injection, schedule: Q04DX002 (ip), vehicle: saline with Tween-80) 94 % of control.

On to `COC1OC(C)C(O)C(O)[CH]1[Hg][O]C(C)=O` (stereo not given), for which the T/C was 111 % of control (dose: 0.18 mg/kg/injection, schedule: Q01DX009 (ip), vehicle: saline); 105 % of control (dose: 0.37 mg/kg/injection, schedule: Q01DX009 (ip), vehicle: saline); 94 % of control and 105 % of control (dose: 0.75 mg/kg/injection, schedule: Q01DX009 (ip), vehicle: saline); 86 % of control and 111 % of control (dose: 1.5 mg/kg/injection, schedule: Q01DX009 (ip), vehicle: saline).

For the compound `O=CC(O)C(O)C(O)C(O)CO` (stereo not given), the T/C reads like this: (dose: 31.25 mg/kg/injection, schedule: Q01DX010 (ip), vehicle: saline) 107 % of control; (dose: 62.5 mg/kg/injection, schedule: Q01DX010 (ip), vehicle: saline) 115 % of control; (dose: 125.0 mg/kg/injection, schedule: Q01DX010 (ip), vehicle: saline) 115 % of control; (dose: 0.2 grams/kg/injection, schedule: Q03DX003 (ip), vehicle: water) 96 % of control; (dose: 250.0 mg/kg/injection, schedule: Q01DX010 (ip), vehicle: saline) 107 % of control; (dose: 0.4 grams/kg/injection, schedule: Q03DX003 (ip), vehicle: water) 97 % of control. The T/C reads like this: (dose: 0.8 grams/kg/injection, schedule: Q03DX003 (ip), vehicle: water) 102 % of control; (dose: 1.5 grams/kg/injection, schedule: Q03DX003 (ip), vehicle: water) 93 % of control; (dose: 3.0 grams/kg/injection, schedule: Q03DX003 (ip), vehicle: water) 102 % of control; (dose: 6.0 grams/kg/injection, schedule: Q03DX003 (ip), vehicle: water) 98 % of control; (dose: 12.0 grams/kg/injection, schedule: Q03DX003 (ip), vehicle: water) 95 % of control; (dose: 16.0 grams/kg/injection, schedule: Q03DX003 (ip), vehicle: water) 101 % of control.

Take `COc1ccc2[nH]c3c(c2c1)CCNC3CC(C)CCC=C(C)C` (stereo not given): the T/C by setting is: under setting [6], 93 % of control; under setting [7], 113 % of control.

As to `CC(C)(C)OC(=O)c1cccc(C(=O)OC(C)(C)C)c1`, the T/C reads like this: under setting [4], 103 % of control; under setting [5], 95 % of control; (dose: 400.0 mg/kg/injection, schedule: Q04DX002 (ip), vehicle: saline with Tween-80) 94 % of control.

With `CCN(CC)CCN1C(=O)c2cccc3cccc(c23)C1=O`, the T/C reads like this: under setting [8], 105 % of control; (dose: 66.0 mg/kg/injection, schedule: Q01DX009 (ip), vehicle: saline) 109 % of control; (dose: 100.0 mg/kg/injection, schedule: Q04DX003 (ip), vehicle: saline) 110 % of control; (dose: 150.0 mg/kg/injection, schedule: Q01DX009 (ip), vehicle: saline) 172 % of control and 181 % of control; (dose: 200.0 mg/kg/injection, schedule: Q04DX003 (ip), vehicle: saline) 95 % of control.

On to `O=C(O)c1ccc(COc2ccc([N+](=O)[O-])cc2Cl)cc1`, for which the T/C runs as follows: under setting [6], 91 % of control; under setting [7], 100 % of control; under setting [9], 100 % of control.

Turning to `CCOC(=O)CCC(=O)CC(O)(C(F)(F)F)C(F)(F)Cl` (stereo not given), the T/C by setting is: under setting [10], 100 % of control; under setting [11], 90 % of control; under setting [12], 95 % of control.

In the case of `CC1C=CC(C)C(C(=O)c2ccccc2)C1C(=O)c1ccccc1` (stereo not given), the T/C was 104 % of control under setting [13]; 100 % of control under setting [14]; 100 % of control (dose: 400.0 mg/kg/injection, schedule: Q04DX003 (ip), vehicle: Klucel (hydroxypropylcellulose) (HPC)).

Turning to `CCOC(=O)C1OC(n2cnc3c(N)ncnc32)C(O)C1O` (stereo not given), the T/C (dose: 6.25 mg/kg/injection, schedule: Q01DX009 (ip), vehicle: saline) is 103 % of control; the T/C (dose: 12.5 mg/kg/injection, schedule: Q01DX009 (ip), vehicle: saline) is 94 % of control; the T/C (dose: 25.0 mg/kg/injection, schedule: Q01DX009 (ip), vehicle: saline) is 94 % of control; the T/C under setting [8] is 92 % of control.

Turning to `CC12CCC(OC3OC(CO)C(O)C(O)C3O)CC1CCC1C2CCC2(C)C(C3=CC(=O)OC3)CCC12O` (stereo not given), the T/C is 86 % of control (dose: 40.0 mg/kg/injection, schedule: Q01DX009 (ip), vehicle: saline); 86 % of control (dose: 80.0 mg/kg/injection, schedule: Q01DX009 (ip), vehicle: saline); 95 % of control (dose: 160.0 mg/kg/injection, schedule: Q01DX009 (ip), vehicle: saline).

Turning to `Cc1ccc(-c2nc3ccccc3c(=O)n2/N=C/c2cccc3ccccc23)cc1`, the T/C was 90 % of control under setting [6] and 89 % of control under setting [7].

As to `Cc1ccc[nH]c1=O`, the T/C by setting is: (dose: 50.0 mg/kg/injection, schedule: Q04DX003 (ip), vehicle: saline sonified) 91 % of control; under setting [15], 91 % of control; under setting [16], 100 % of control.

Take `O=C(Nc1ccc(C2=NCCN2)cc1)Nc1cccc(NC(=O)Nc2cccc(C3=NCCN3)c2)c1`: the T/C was 150 % of control (dose: 12.5 mg/kg/injection, schedule: Q01DX009 (ip), vehicle: saline with Tween-80); 266 % of control and 170 % of control (dose: 16.5 mg/kg/injection, schedule: Q04DX003 (ip), vehicle: saline with Tween-80); 105 % of control (dose: 25.0 mg/kg/injection, schedule: Q01DX009 (ip), vehicle: saline with Tween-80); 250 % of control and 190 % of control and 200 % of control (dose: 25.0 mg/kg/injection, schedule: Q04DX003 (ip), vehicle: saline with Tween-80); 283 % of control and 185 % of control (dose: 37.5 mg/kg/injection, schedule: Q04DX003 (ip), vehicle: saline with Tween-80); 90 % of control under setting [6]. For the same compound, the T/C (dose: 50.0 mg/kg/injection, schedule: Q04DX003 (ip), vehicle: saline with Tween-80) was 177 % of control.

As for `C/C(CC(c1ccccc1)N1CCc2ccccc2C1)=N/O` (stereo not given), the T/C was 104 % of control under setting [15]; 109 % of control under setting [16]; 90 % of control (dose: 400.0 mg/kg/injection, schedule: Q04DX003 (ip), vehicle: saline sonified).

With `Nc1ccc2ccccc2c1N=Nc1ccccc1`, the T/C under setting [13] is 109 % of control and the T/C under setting [14] is 123 % of control.

As to `COCC(N)=O`, the T/C by setting is: under setting [1], 106 % of control; under setting [2], 97 % of control; under setting [3], 113 % of control.

As to `CS(=O)(=O)CC(O)(c1ccccc1)c1cccs1` (stereo not given), the T/C by setting is: under setting [6], 99 % of control; under setting [7], 100 % of control; under setting [9], 100 % of control.

Turning to `O=C1c2ccccc2C(=O)N1OC1CCCCO1` (stereo not given), the T/C reads like this: under setting [7], 91 % of control; under setting [10], 100 % of control; under setting [9], 87 % of control; under setting [11], 108 % of control; (dose: 400.0 mg/kg/injection, schedule: Q01DX009 (ip), vehicle: saline with Tween-80) 100 % of control; under setting [12], 104 % of control.
